According to PMC3929664, “A Panel of Diverse Assays to Interrogate the Interaction between Glucokinase and Glucokinase Regulatory Protein, Two Vital Proteins in Human Disease” (PLoS ONE, 2014):
Where a name gives a salt, the structure may show the parent alone.

Target: T1, GCK-GKRP interaction (recombinant human GST-GCK and FLAG-GKRP) (Homo sapiens, UniProt P35557+Q14397)
T1 construct: made in house
T1 sequence (P35557 1-465): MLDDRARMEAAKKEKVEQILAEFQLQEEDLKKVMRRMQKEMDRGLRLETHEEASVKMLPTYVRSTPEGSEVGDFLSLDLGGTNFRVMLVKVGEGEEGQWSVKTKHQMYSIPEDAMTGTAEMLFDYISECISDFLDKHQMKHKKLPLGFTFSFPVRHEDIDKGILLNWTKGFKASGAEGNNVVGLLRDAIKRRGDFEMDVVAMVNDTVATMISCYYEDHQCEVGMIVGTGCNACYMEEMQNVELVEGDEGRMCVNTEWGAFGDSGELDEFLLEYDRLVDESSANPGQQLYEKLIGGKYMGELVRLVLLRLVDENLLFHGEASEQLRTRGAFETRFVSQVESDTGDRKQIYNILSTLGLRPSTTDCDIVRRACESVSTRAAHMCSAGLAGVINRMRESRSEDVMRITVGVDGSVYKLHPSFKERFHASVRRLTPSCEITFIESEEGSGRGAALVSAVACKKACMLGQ
T1 sequence (Q14397 1-625): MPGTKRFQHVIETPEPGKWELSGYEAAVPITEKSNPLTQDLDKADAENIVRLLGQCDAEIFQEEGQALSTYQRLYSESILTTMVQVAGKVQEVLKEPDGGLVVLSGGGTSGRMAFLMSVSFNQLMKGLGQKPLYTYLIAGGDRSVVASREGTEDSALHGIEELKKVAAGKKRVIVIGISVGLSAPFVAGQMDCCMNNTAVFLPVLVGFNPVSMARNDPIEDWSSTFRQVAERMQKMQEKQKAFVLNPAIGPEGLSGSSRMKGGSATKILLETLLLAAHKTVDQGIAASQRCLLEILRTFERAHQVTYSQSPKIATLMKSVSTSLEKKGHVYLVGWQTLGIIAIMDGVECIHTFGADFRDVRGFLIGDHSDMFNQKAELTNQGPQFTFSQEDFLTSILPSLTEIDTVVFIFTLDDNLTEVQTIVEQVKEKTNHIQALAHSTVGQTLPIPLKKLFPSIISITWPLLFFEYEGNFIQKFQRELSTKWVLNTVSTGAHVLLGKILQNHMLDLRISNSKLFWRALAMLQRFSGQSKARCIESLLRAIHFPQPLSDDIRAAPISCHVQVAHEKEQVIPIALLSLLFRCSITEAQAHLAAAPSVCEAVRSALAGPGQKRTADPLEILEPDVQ
Experiment: HTRF assay of the GCK-GKRP protein-protein interaction
Assay type: binding
Conditions: 5 nM GCK, 5 nM GKRP
Protocol: Homogeneous time-resolved fluorescence (HTRF) technology (Cisbio Bioassays, Bedford, MA, USA) was utilized for antibody-based FRET measurement of the GCK-GKRP protein-protein interaction. Recombinant human GST-GCK and FLAG-GKRP were mixed in an HTRF assay buffer containing 2 mM MgCl2, 25 mM KCl, 25 mM HEPES, 1 mM DTT, 0.1% Tween-20, and 0.025% BSA (all buffer components Sigma-Aldrich). The pH was adjusted to 7.1 by drop-wise addition of 10 N NaOH. […] For assays in 1536-well plate format, the two reaction mixes were dispensed using an Aurora Discovery BioRAPTR Flying Reagent Dispenser (BioRAPTR; Beckman Coulter, Inc., Brea, CA, USA) (3 µl/well for protein-containing buffer; 1 µl/well for detection antibodies) into white 1536-well solid-bottom medium binding plates (Greiner Bio-One, Monroe, NC, USA). […] For the LOPAC^1280 library screen, column 1 was all components with DMSO (maximum signal) and column 3 was no GKRP with DMSO (minimum signal). These two control columns were used for data normalization. The final HTS protocol is in Table S1, and the data have been deposited in PubChem (AID 743207).
S6P, F1P, and glucose were dissolved in water; GKAs were dissolved in DMSO.
The assay was validated using a range (0–150 nM) of GCK and GKRP concentrations at manufacturer-recommended detection antibody concentrations ( Figure 2A ). Fluorescence was measured immediately upon mixing, and every 30 minutes thereafter for a total of 240 minutes. The plate was covered and incubated at room temperature throughout the course of the experiment.
The assay was miniaturized to 1536-well plate format and, concurrently, specificity of detection was validated by using known modulators of the GCK-GKRP interaction.
The EC80 value represents a compromise between the desire for large enough signal enhancement and the need to maintain a binding level that is not too saturated so that it can be outcompeted by compounds of interest. Additionally, this approach enables detection of specific competitors of S6P, which would likely be acting on GKRP as desired, and not on GCK. […] Both glucose and GKAs interfere with the binding of GKRP to GCK and decrease GKRP inhibition, [44], [45], while F1P binds to GKRP and is competitive with respect to S6P [46].

O=C(O)C1=CC(=C(c2ccc(O)c(C(=O)O)c2)c2ccc(O)c(C(=O)O)c2)C=CC1=O [ATA, aurintricarboxylic acid]
LOPAC1280 screen outcome (2 µM S6P): inhibitors of the GCK-GKRP interaction

O=C(COP(=O)(O)O)[C@@H](O)[C@H](O)[C@H](O)CO [F1P, fructose 1-phosphate]
IC50 (2 µM S6P, mean ± SD, read-out: IC50 (inhibition of GCK-GKRP interaction, HTRF signal)): 70000 ± 5400 nM

O=P(O)(O)OC[C@@H](O)[C@@H](O)[C@H](O)[C@@H](O)CO [S6P, sorbitol 6-phosphate]
EC80: 2000 nM
EC50 (1536-well, mean ± SD, read-out: EC50 (enhancement of HTRF signal)): 400 ± 80 nM

Cc1ccc(C(=O)Nc2ccc(S(=O)(=O)O)c3cc(S(=O)(=O)O)cc(S(=O)(=O)O)c23)cc1NC(=O)c1cccc(NC(=O)Nc2cccc(C(=O)Nc3cc(C(=O)Nc4ccc(S(=O)(=O)O)c5cc(S(=O)(=O)O)cc(S(=O)(=O)O)c45)ccc3C)c2)c1 [suramin sodium salt]
LOPAC1280 screen outcome (2 µM S6P): inhibitors of the GCK-GKRP interaction
